One compound from EPA's ToxValDB 9.5 (doi:10.2903/j.efsa.2011.2020) can be followed below.

Structures are written as SMILES. Converted amounts (≈) assume the structure as drawn.

The subject of data set [1] is Typhlodromus pyri. Briefly: LR50; higher = less toxic. The settings on record: not reported; mortality.
The subject of data set [2] is Aphidius rhopalosiphi. In words: LR50; higher = less toxic. The settings on record: not reported; mortality.
The subject of data set [3] is Coturnix japonica. The settings on record: acute, oral, mortality.
Data set [4] relates to Mus musculus.
Data set [5] deals with Rattus norvegicus. The settings on record: for LD50: acute, mortality.
Data set [6] concerns Oncorhynchus mykiss. The settings on record: acute; duration: 96 hours; mortality.
In data set [7] the test system is Apis mellifera. Particulars: acute; dermal; mortality.

As a reminder, the NOAEL is the highest dose or exposure tested at which no adverse effect was seen. For `NC(=O)Cc1cccc2ccccc12` [1-Naphthaleneacetamide], the LR50 in data set [1] and in data set [2] was greater than 40 g/ha each time. Further, the figures for the LC50 in data set [3] (diet) and in data set [6] were 4370 mg/kg-day and 44 mg/L (≈ 238 µM), respectively. The LD50 is greater than 2000 mg/kg-day in data set [3]; 1930 mg/kg-day in data set [4] (acute, oral, F, mortality); 1660 mg/kg-day in data set [5] (oral, M); greater than 5050 mg/kg-day in data set [5] (oral); greater than 100 µg/piece in data set [7]. Moreover, the NOAEL worked out at 195 mg/kg-day in data set [4] (chronic, duration: 18 months, other); 43.8 mg/kg-day in data set [5] (chronic, duration: 2 years, organ weight); 15 mg/kg-day in data set [5] (developmental, development); 10 mg/kg-day in data set [5] (subchronic, duration: 90 days, oral, hematological); 5 mg/kg-day in data set [5] (subchronic, duration: 90 days, oral, organ weight).
